{"source": "patent US4889862A", "about": "“Freeze-dried pharmaceutical compositions of phenylquinoline carboxylic acids” (E. I. Du Pont de Nemours and Company, priority 1987, dated 1989)", "key": {"L1210 leukemia": {"system": "L1210 leukemia", "test": "In vivo antitumor activity against L1210 leukemia in mice (survival time)", "set-up": "species or system CDF1 mice; L1210 murine leukemia", "conditions": "for Survival Time: % T/C (mean day of death treated/control × 100): intraperitoneal", "protocol": "Then distilled water (4 ml) was added to the above to make 50 mg/kg solution. Serial two-fold dilutions were made in distilled water from the 50 mg/kg solution for the remaining three concentrations. An unformulated control solution was prepared by dissolving the title compound in distilled water and was used while it remained clear.\nThe test was carried out as follows. On day 0, CDF1 mice were injected with 1×10^5 L1210 murine leukemia cells intraperitoneally. On day 1 formulated and unformulated title compound were injected intraperitoneally and the injections continued, once daily through day 9. Mice were observed until death."}, "in vivo": {"test": "in vivo", "protocol": "A comparative test was performed on the title compound to evaluate possible lethality differences between compositions described herein and compositions prepared by dissolving in water. […] Following compound administration, mortality was evaluated twice daily for 14 days."}}}
{"smiles": "Cc1c(-c2ccc(-c3ccccc3F)cc2)nc2ccc(F)cc2c1C(=O)[O-].[Na+]", "values": [{"measurement": "Survival Time: % T/C (mean day of death treated/control × 100)", "setting": "L1210 leukemia; 6.25 mg/kg/day × 9 days", "value": 156, "unit": "%"}, {"measurement": "Survival Time: % T/C (mean day of death treated/control × 100)", "setting": "L1210 leukemia; 12.5 mg/kg/day × 9 days", "value": 167, "unit": "%"}, {"measurement": "Survival Time: % T/C (mean day of death treated/control × 100)", "setting": "L1210 leukemia; 25 mg/kg/day × 9 days", "value": 169, "unit": "%"}, {"measurement": "Survival Time: % T/C (mean day of death treated/control × 100)", "setting": "L1210 leukemia; 50 mg/kg/day × 9 days", "value": 89, "unit": "%"}, {"measurement": "effect of sodium cholate and glycine on antitumor activity", "setting": "L1210 leukemia; formulated vs unformulated", "value": "no effect on the antitumor activity"}, {"measurement": "LD50 at 336 h", "setting": "in vivo; mouse, in vivo", "value": 156, "unit": "mg/kg"}, {"measurement": "Slope of the response curve", "setting": "in vivo; vehicle D.I. H2O, pH = 8.5, single parenteral dose, female mice", "value": 1.18}]}
